Results reported in a melting point compilation (Tetko et al.; mined from patent text by program, amines drawn as free bases though some values may be those of a salt).

Row | melting point | SMILES
1 | 179 to 182 °C | CC(C)CC(=O)Nc1cccc(-c2ccnc3c(-c4cccc(CN(C)C)c4)cnn23)c1
2 | 134 to 136 °C | COc1cc(-c2ccc([N+](=O)[O-])cn2)cc(OC)c1OC
3 | 104 to 105 °C | COC(=O)c1c(OCc2ccccc2)ccc2c1CC[C@H](NC(C)(C)C)[C@@H]2O (relative stereo)
4 | 112 to 115 °C | Cc1cn(COCCI)c(=O)[nH]c1=O
5 | 129 to 130 °C | Cc1oc(-c2ccccc2)nc1CCOc1ccc(OC(C)(C)C(=O)O)cc1
6 | 156 °C | CC(C)c1cccc(C(C)C)c1NC(=O)NCC1(SCc2ccccc2)CCCCC1
7 | 194 °C | Cc1nn2c(=O)c(CCN3CCC(n4ccc5cc(F)ccc54)CC3)c(C)nc2s1
8 | 112 to 117 °C | CCCC(=O)N(Cc1ccc(Cl)cc1Cl)c1c(NC(C)(C)CC)c(=O)c1=O
9 | 98 to 99 °C | COC(=O)c1cncc(-c2ccc(OC)c(N)c2)c1
10 | 74 to 75 °C | CC(C)(C)CC(=O)Oc1ccc(-c2nn(C3CCCC3)c3c(F)cccc23)cc1
11 | 144 to 146 °C | Cc1cc(NC(=O)c2ccccc2C)ccc1Br
12 | 205 to 208 °C | CN1C(=O)CC[C@]2(C)c3ccc(C#Cc4ccccc4)cc3CC[C@@H]12
13 | 70 to 71 °C | C/C(=C\c1ccc(O)cc1)c1ccc2c(c1)OCC(C)(C)CO2
14 | 154 to 158 °C | CCOC(=O)c1cn(CC(F)(F)F)c2c(C)cc(F)cc2c1=O
15 | 133 to 134 °C | O=C1CCCC(C(=O)c2ccc(Cc3ccc(F)cc3)o2)=C1O
16 | 152 to 153 °C | Cc1c(C)c(-c2cccc(CO)c2)c(C)c(C)c1O
17 | > 240 °C | CON1CCC2(CC1)NC(=O)C(c1c(C)cc(C#C[Si](C)(C)C)cc1C)=C2O
18 | 172 to 173 °C | CCCCc1nc2c([nH]c(=O)c3ccccc32)s1
19 | 250 °C | Cc1cc(C)c2ccc(N3C(=O)c4nccnc4C3=O)nc2n1
20 | 159 to 161 °C | Cc1c(CC(=O)O)c2cc(O)c(F)cc2n1C(=O)c1ccccc1

Row | melting point | SMILES
21 | 84 to 85 °C | CCc1cnc(N)c2ccccc12
22 | 173 to 175 °C | CCOC(=O)c1nc2cc(-c3ccccc3)sc2nc1N
23 | 63 to 64.5 °C | CC1=C2OCOC2CC(C)(C)C1(O)C[Si](C)(C)C (centres undefined)
24 | 83 to 85 °C | CCOC(=O)COc1cc2c(c(Cl)c1Cl)C(=O)C(C)(C(C)C)C2Br (centres undefined)
25 | 105 to 107 °C | Cc1c(C)c2c(c(C)c1N)CC(C)(CI)O2 (centres undefined)
26 | 313 °C | COc1cc2c(=O)n(CCCO)c3c4ccccc4[nH]c(=O)c3c2cc1OC
27 | 127 to 129 °C | CCOc1cc(N)c(Cl)cc1C(=O)NC[C@H]1CN(CC2CCN(C(=O)N(C)OC)CC2)CCO1
28 | 112 to 115 °C | Cc1ccc2nc(Cl)c(Cl)nc2c1
29 | 105 °C | COC(=O)C(COc1ccc(Cl)cc1C#N)Oc1ccccc1Cl (centres undefined)
30 | 169 to 170 °C | Oc1ccc(-c2noc(C3(C(O)(C4CC4)C4CC4)CC3)c2-c2ccccc2)cc1
31 | 86 to 87 °C | CCCc1cc(Cl)c2oc(-c3ccccc3)c(C)c2c1OC(C)=O
32 | 328 to 330 °C | O=C1CCC(N2Cc3c(CNC(=O)Nc4ccccc4)cccc3C2=O)C(=O)N1 (centres undefined)
33 | 186 to 188 °C | CC(C)Cn1cnc(C#N)c1N
34 | 265 to 266 °C | CC[C@@]12C/C(=C\c3ccccc3)C(=O)C[C@H]1CCc1cc(O)ccc12
35 | 121 to 123 °C | CCCCn1nnc(-c2ccc(C(=O)NCC3CCCC3(C)C)cc2)n1 (centres undefined)
36 | 140 °C | CN1C(=O)C2CC2(c2ccc(N(C)C)cc2)C1=O (centres undefined)
37 | 177 to 180 °C | COc1cc([C@@H]2c3cc4c(cc3C=C[C@H]2C(=O)O)OCO4)cc(OC)c1OC (relative stereo)
38 | 77.5 to 78.5 °C | CC(=O)c1cc2c(c(C=O)c1O)CCCC2
39 | 153 to 155 °C | CCCCn1c(=O)c(NC(=O)Nc2c(C(C)C)cc(N)cc2C(C)C)c(-c2cccc(OCCCO)c2)c2cccnc21

The next lines start with the molecule.

Row | SMILES | melting point
40 | CCCCCNC(=O)[C@H](Cc1ccc(N(CC(=O)O)CC(=O)O)cc1)NC(=O)[C@H](Cc1ccccc1)NC(=O)OC(C)(C)C | 151 to 152 °C
41 | COc1cccc2c1SCC(=O)C2 | 60 °C
42 | COc1nnc2n1C=Cc1ccccc1C2 | 160 to 161 °C
43 | O=c1cc(-c2ccccc2)sc(N2CCOCC2)c1 | 160 to 161 °C
44 | COC1C=CC2C3Cc4ccc(O)c5c4C2(CCN3C)C1O5 (centres undefined) | 242 to 243 °C
45 | CC(C)(C)OC(=O)NCCNCCNC(=O)OC(C)(C)C | 69 to 71 °C
46 | Cc1ccc([N+](=O)[O-])c2c1C(N1C(=O)c3ccccc3C1=O)CCC2=O (centres undefined) | 220 to 230 °C
47 | O=C(OC1COC1)c1sccc1OS(=O)(=O)Cl | 92 to 94 °C
48 | CC(=O)N1CCC(NC(=O)NC23CC4CC(CC(C4)C2)C3)CC1 | 202 to 204 °C
49 | CCNC(CO)Cc1cn(Cc2ccccc2)cn1 (centres undefined) | 109 to 110 °C
50 | CC1CC(=O)c2cc(OCc3ccc4ccccc4n3)cnc2C1 (centres undefined) | 141 to 144 °C
51 | CN1C(=O)C(Cc2ccccc2)(c2ccccc2OCCCCBr)c2ccccc21 (centres undefined) | 174 to 175 °C
52 | Cc1sc2ccccc2c1Br | 39 to 40 °C
53 | CCCCC(=O)NCc1ccc(I)cc1 | 80 to 81 °C
54 | CC(=O)N1CCC(c2ccc(S(N)(=O)=O)cc2)CC1 | 196 to 197 °C
55 | Cc1nn(C)c2cc(-c3ccc4nnn(Cc5ccc6ncccc6c5)c4n3)ccc12 | 159 to 163 °C
56 | OC1OC2C(Br)C3CC1C2C3 (centres undefined) | 61 °C
57 | COc1cccc(CN2CCN(C)CC2C2=NCCN2)c1 (centres undefined) | 78 to 80 °C
58 | O=CN1CCN(c2ccnc(Cl)n2)CC1 | 125 to 126 °C
59 | CN1CCN(C2c3ccccc3CC2O)CC1 (centres undefined) | 132 °C
60 | COC(=O)C(=O)c1ccc(OCCOc2ccc3cc4ccccc4cc3c2)cc1 | 188 to 189 °C
61 | CC1CCN(C(=O)[C@H](CCCNc2ncccn2)NS(=O)(=O)c2ccc3ccccc3c2)CC1 | 98 to 100 °C

Row | SMILES | melting point
62 | C1=C(c2ccc3ccccc3c2)CCN(Cc2n[nH]c3ccccc23)C1 | 225 to 227 °C
63 | OCC1CC(O)C(n2cnc3c(-n4cccc4)ncnc32)O1 (centres undefined) | 175 to 176 °C
64 | CC(C)[C@H](NC(=O)N(C)Cc1ccccn1)C(=O)N[C@@H](Cc1ccccc1)[C@@H](O)[C@@H](O)[C@H](Cc1ccccc1)NC(=O)OCc1cccnc1 | 84 to 85 °C
65 | CCCc1c(OCCCOc2ccccc2C(=O)NCCCCc2cccnc2)ccc(C(C)=O)c1O | 104 to 107 °C
66 | O=C(Nc1cccc(F)n1)c1cc(-c2ccc(Cl)c(Cl)c2)nc2ccccc12 | 204 to 206 °C
67 | O=C1Nc2ccccc2N(C(=O)Cl)c2c1csc2Cl | 158 to 161 °C
68 | CCS(=O)(=O)N[C@H](C(=O)NCc1ccc(OCC#Cc2ccc(Cl)cc2)c(OC)c1)C(C)C | 162 to 163 °C
69 | O=C1CSC(=S)N1c1ccc(Cl)cc1 | 124 to 126 °C
70 | Nc1ccnn1-c1cccc(C(F)(F)F)c1 | 77 to 79 °C
71 | O=C1CCC(c2ccc(F)cc2)CC1 | 104 to 106 °C
72 | Nc1nc(F)cc(Oc2ccc(Cl)cc2)n1 | 223 to 226 °C
73 | CC(C)(C)OC(=O)N1CCC(C(=O)N2CCN(c3ccncn3)CC2)CC1 | 159 to 163 °C
74 | O=C(NCC1(O)CCCCCC1)c1cc(-c2ncc(Cl)cc2C(=O)O)ccc1Cl | 201 to 204 °C
75 | O=c1[nH]c(N[N+](=O)[O-])ncc1Cc1ccn(Cc2ccccc2)c(=O)c1 | 200 to 201 °C
76 | O=C1CC(c2ccccc2)C(c2ccccc2)=NN1C(=O)Nc1ccc(C(F)(F)F)cc1 (centres undefined) | 164 to 166 °C
77 | COc1ccc(S(=O)(=O)Nc2nc(-c3cccc([N+](=O)[O-])c3)cs2)cc1 | 157 to 159 °C
78 | COc1nc2ccccc2cc1/C=C/c1cc(CN2CCN(S(C)(=O)=O)CC2)ccc1[N+](=O)[O-] | 156 to 157 °C
79 | N#Cc1cc2ccccc2[nH]1 | 94 to 95 °C
80 | Clc1ccc(CN2CCN=C2Cc2ccccc2)c(Cl)c1 | 185 to 189 °C
81 | CCC(CCc1cc(-c2ccccc2)nc2ccccc12)C(=O)N(CC)CC (centres undefined) | 81 °C
82 | O=C1CC(c2ccc(F)cc2)Cc2occ(C(F)(F)F)c21 (centres undefined) | 105 to 106 °C
83 | CS(=O)(=O)Nc1ccccc1C(=O)Nc1ccc(OCCN2CCCC2)cc1 | 221 to 222 °C

Row | SMILES | melting point
84 | Nc1ccc(CCC(=O)N(c2ccccc2)c2ccccc2)cc1[N+](=O)[O-] | 189 to 190 °C
85 | COc1cccc2c1C(=O)c1cccc3cc(O)cc-2c13 | 298 to 300 °C
86 | COCOc1ccccc1-c1cc(-c2ccc(OC)c(C(=O)O)c2)c(C#N)c(NC(=O)c2cccs2)n1 | 187 to 189 °C
87 | CSc1ncc(CN)c(NC2CCCC2)n1 | 58 to 60 °C
88 | CC(C)(C)N[C@H](Cc1ccccc1)C(=O)O | 79 to 80 °C
89 | O=C(O)CNc1nc(NCc2ccc(NC(=O)c3ccc(F)cc3)cc2)c2ccccc2n1 | 235 °C
90 | Cc1cc(Oc2c(Cl)cc(C(F)(F)F)cc2Cl)nn1C(=O)NCc1ccccc1 | 50 to 53 °C
91 | CC(C)(C)OC(=O)NCC1Cc2ccc(CC(=O)O)cc2C1 (centres undefined) | 123 to 124 °C
92 | CN(C)C=C1C(=O)N(c2cccc(O)c2)c2ccccc21 | 200 to 203 °C
93 | O=C(c1ccccc1)N1CCn2c(CN3CCCCC3)ccc2C1 | 95 to 96 °C
94 | CN1CCC(c2c[nH]c3ccc(/C=C/S(N)(=O)=O)cc23)CC1 | 208 to 209 °C
95 | COc1cc2c(cc1Cl)CC(C)=NN=C2c1ccc(N)cc1 | 198 to 200 °C
96 | O=C(O)c1cn(-n2cnnc2)c2cc(F)c(F)cc2c1=O | 270 °C
97 | CN=CN(C)c1ccccc1C#N | 60 to 63 °C
98 | C=C(C)C(=O)Oc1ccc(NS(C)(=O)=O)c(C)c1 | 95 to 97 °C
99 | O=C(C1CCN(c2ccncn2)C1)N1CCNCC1 (centres undefined) | 129 to 131 °C
100 | CC(C)n1c(=O)nc(-c2ccc3c(c2)OCCO3)c2cc3c(cc21)OCO3 | 214 to 217 °C
101 | C=C1CCC23OC2(C1)CC(C)C1C2CCC(O)C2(C)CCC13 (centres undefined) | 125 °C
102 | O=C(CCCCCCSc1ccccc1)c1ncco1 | 39 to 40 °C
103 | OCCN1CC[C@@H]2[C@H]1CCC[C@@]2(O)c1ccc(Cl)c(Cl)c1 (racemic) | 161 °C
104 | Clc1cccc(C2=NOCCS2)c1 | 65 °C
